# Experimental data reported in the PolyMetriX glass transition set.
# ± gives the standard deviation of the reports.
row,Structure (SMILES),glass transition temperature [°C]
1,*c1cccc(-c2cc(C(=O)Nc3ccc(OC(=O)c4cc(OCCCCCCCCCCCC)c(OCCCCCCCCCCCC)c(OCCCCCCCCCCCC)c4)cc3)cc(-c3cccc(N4C(=O)CC(C5C=C(C)C6C(=O)N(*)C(=O)C6C5)C4=O)c3)c2)c1 (repeat unit),270.00
2,*c1cc(C(=O)OC)cc(N2C(=O)CC(C3Cc4ccccc4C4C(=O)N(*)C(=O)C43)C2=O)c1 (repeat unit),258.00
3,*NC(CCC(=O)OCCCCC)C(*)=O (repeat unit),-20.00
4,*C(=O)Nc1ccc(Oc2cccc(NC(=O)c3ccc4c(c3)C(=O)N(c3ccc(Oc5ccc(C6(c7ccc(Oc8ccc(N9C(=O)c%10ccc(*)cc%10C9=O)cc8)cc7)NC(=O)c7ccccc76)cc5)cc3)C4=O)c2)cc1 (repeat unit),302.00
5,*Nc1cc(NC(=O)c2ccc3cc(C(*)=O)ccc3c2)cc(C(=O)OCCOc2ccc(/C=C/C(=O)c3ccccc3)cc2)c1 (repeat unit),247.00
6,*c1ccc2c(c1)C(=O)N(c1cccc(Oc3ccc(N4C(=O)c5ccc(-c6c(-c7ccccc7)c(-c7ccccc7)c(-c7ccc(Oc8ccc(-c9c(-c%10ccccc%10)c(-c%10ccccc%10)c(*)c(-c%10ccccc%10)c9-c9ccccc9)cc8)cc7)c(-c7ccccc7)c6-c6ccccc6)cc5C4=O)cc3)c1)C2=O (repeat unit),309.00
7,*c1ccc(C(C)(C)c2ccc(C(C)(C)c3ccc(N4C(=O)c5ccc(Oc6ccc7ccc(Oc8ccc9c(c8)C(=O)N(*)C9=O)cc7c6)cc5C4=O)cc3)cc2)cc1 (repeat unit),246.00
8,*CC(*)(C)C(=O)OCCCCCc1ccc(/N=N/c2ccc(OC(F)(F)F)cc2)cc1 (repeat unit),202.50
9,*CC(*)c1ccc(C(=O)Cc2ccccc2)cc1 (repeat unit),78.00
10,*CCOC(=O)Nc1ccc(CCCc2ccc(NC(=O)O*)cc2)cc1 (repeat unit),74.10
11,*CC(*)OC(=O)C(F)(F)C(F)(F)C(F)(F)C(F)(F)C(F)(F)C(F)(F)C(F)(F)F (repeat unit),-10.00
12,*C(=O)c1ccc2c(c1)C(=O)N(c1c(C(C)C)cc(Cc3cc(C(C)C)c(N4C(=O)c5ccc(*)cc5C4=O)c(C(C)C)c3)cc1C(C)C)C2=O (repeat unit),263.00
13,*C(=O)c1ccc2c(c1)C(=O)N(c1cc(/C=N/C(=S)Nc3ccc(N4C(=O)c5ccc(*)cc5C4=O)cc3)ccc1Cl)C2=O (repeat unit),274.00
14,*CC(*)C(=O)OCC(C)CC (repeat unit),-32.00
15,*O[Si](*)(C)CCCCC1COC(=O)O1 (repeat unit),-23.4
16,*Oc1ccc(Oc2ccc(C(=O)c3ccc(*)cc3)cc2)cc1-c1ccc(Oc2ccccc2)cc1 (repeat unit),146.00
17,*Oc1ccc(CC(NC(=O)Cc2ccc(OC(=O)CCCCCCC(*)=O)cc2)C(=O)OCCCCCC)cc1 (repeat unit),27.00
18,*CCCCCCCCOc1ccc(/C=C/c2cc(OCCCCCCCC)c(/C=C/c3ccc(O*)cc3)cc2OCCCCCCCC)cc1 (repeat unit),130.00
19,*OP(=O)(Oc1ccc(OC)cc1)Oc1c(C)cc(S(=O)(=O)c2cc(C)c(*)c(C)c2)cc1C (repeat unit),147.00
20,*NC1CCC(CC(C)(C)NC(=O)CCCCC(*)=O)CC1 (repeat unit),80.00

row,Structure (SMILES),glass transition temperature [°C]
1,*CCCCCCOC(=O)c1cccc(C(=O)O*)c1 (repeat unit),5.50
2,*Oc1ccc(CC(NC(=O)CCc2ccc(OC(=O)COCCOCC(*)=O)cc2)C(=O)OCCCCCCCCCCCC)cc1 (repeat unit),17.00
3,*c1cccc(-c2nc3ccc(-c4ccc5nc(*)sc5c4)cc3s2)c1 (repeat unit),495.00
4,*c1ccc2c(c1)C(=O)N(c1c(C)cc(C)c(C(=O)c3cccc(N4C(=O)c5ccc(C(*)(C(F)(F)F)C(F)(F)F)cc5C4=O)c3)c1C)C2=O (repeat unit),280.00
5,*OS(=O)(=O)c1cc(S(=O)(=O)Oc2ccc(C3(c4ccc(*)c(C)c4)CCCCC3)cc2C)ccc1C (repeat unit),141.00
6,*CC(*)(C)C(=O)OCC(C)(C)C (repeat unit) [Poly(neopentyl methacrylate) ],33 ± 3.7
7,*c1ccc(Oc2cccc(Oc3ccc(N4C(=O)c5ccc(Oc6cc7ccccc7cc6Oc6ccc7c(c6)C(=O)N(*)C7=O)cc5C4=O)cc3)c2)cc1 (repeat unit),208.00
8,*c1cccc(OCCCCCCCCCCCOC(=O)c2ccc(C(=O)OCCCCCCCCCCCOc3cccc(-c4nnc(*)s4)c3)cc2)c1 (repeat unit),22.00
9,*C(=O)Nc1ccc(Oc2ccc(C3(c4ccc(Oc5ccc(NC(=O)c6ccc7c(c6)C(=O)N(c6ccc(Oc8ccc(Oc9ccc(N%10C(=O)c%11ccc(*)cc%11C%10=O)cc9)cc8)cc6)C7=O)cc5)cc4)NC(=O)c4ccccc43)cc2)cc1 (repeat unit),284.00
10,*CC(*)c1ccc(B(Oc2ccc(-c3ccc(N(C)C)cc3)c3cccnc23)c2ccc(C(C)(C)C)cc2)cc1 (repeat unit),230.00
11,*Oc1ccc(/N=N/c2ccc(Cc3ccc(/N=N/c4ccc(OC(=O)c5ccc(C(*)=O)cc5)cc4)cc3[N+](=O)[O-])c([N+](=O)[O-])c2)cc1 (repeat unit),198.00
12,*CC(O)COc1ccc(C(C)(C)c2ccc(OCC(O)COc3ccc(Oc4ccc(O*)cc4)cc3)cc2)cc1 (repeat unit),85.00
13,*c1cc(C(=O)OCCCC)cc(N2C(=O)CC(C3Cc4ccccc4C4C(=O)N(*)C(=O)C43)C2=O)c1 (repeat unit),219.00
14,*CCN(CCN1C(=O)c2ccc(C(c3ccc4c(c3)C(=O)N(*)C4=O)(C(F)(F)F)C(F)(F)F)cc2C1=O)c1ccc(/C=C/C2=CC(=C(C#N)C#N)CC(C)(C)C2)cc1 (repeat unit),224.00
15,*CC1CC(*)C(OC(=O)CCCCCCCCCCOc2ccc(-c3ccc(C#N)cc3)cc2)C1OC(=O)CCCCCCCCCCOc1ccc(-c2ccc(C#N)cc2)cc1 (repeat unit),14.50
16,*CC(COc1ccc(S(=O)(=O)c2ccc(O*)cc2)cc1)OC(C)=O (repeat unit),130.00
17,*CCN(*)C(=O)CSC (repeat unit),39.00
18,*c1nnc(-c2ccc(Oc3ccc(/C=C/c4ccc(Oc5ccc(*)c6ccccc56)cc4)cc3)c3ccccc23)o1 (repeat unit),238.00
19,*C(=O)Nc1cccc(NC(=O)c2ccc3[nH]c(-c4cc(-c5nc6cc(*)ccc6[nH]5)cc(N5C(=O)c6ccccc6C5=O)c4)nc3c2)n1 (repeat unit),312.00
20,*C(=O)c1ccc2c(c1)/C(=N\c1ccc(Oc3ccc(C(c4ccc(Oc5ccc(/N=C6/OC(=O)c7ccc(*)cc76)cc5)cc4)(C(F)(F)F)C(F)(F)F)cc3)cc1)OC2=O (repeat unit),248.00

row,Structure (SMILES),glass transition temperature [°C]
1,*CCOC(=O)CCSCCC(=O)O* (repeat unit),-43.00
2,*Oc1ccc(NC(=O)c2ccc(P(=O)(c3ccccc3)c3ccc(C(=O)Nc4ccc(*)cc4)cc3)cc2)cc1 (repeat unit),254.00
3,*CCCC(C)(C)CNC(=O)C(=O)N* (repeat unit),109.00
4,*CC(*)C(=O)c1ccccc1 (repeat unit) [Poly(phenyl vinyl ketone)],60.80 ± 17
5,*Nc1ccc(NC(=O)c2ccc(NC(=O)CCCCCCCCCCC(=O)Nc3ccc(C(*)=O)cc3)cc2)cc1C(=O)OCCCCCCCCCCCCCCCCCC (repeat unit),196.50
6,*c1ccc2c(c1)Sc1cc(-c3sc4cc(*)sc4c3CCCCC)ccc1N2CCCCCCCCCCCC (repeat unit),136.00
7,*Oc1ccc(CC(NC(=O)CCc2ccc(OC(=O)CCCCCCC(*)=O)cc2)C(=O)OCCCCCCCC)cc1 (repeat unit),22.00
8,*Oc1cccc(NC(=O)c2cc(C(=O)Nc3ccc(*)cc3)cc(C(F)(F)C(F)(F)C(F)(F)C(F)(F)C(F)(F)C(F)(F)C(F)(F)C(F)(F)F)c2)c1 (repeat unit),210.00
9,*c1ccc(S(=O)(=O)c2ccc(-n3nc(-c4ccccc4)c4ccc(S(=O)(=O)c5ccc6c(-c7ccccc7)nn(*)c(=O)c6c5)cc4c3=O)cc2)cc1 (repeat unit),422.00
10,*CC(*)(C)C(=O)OCCCCCCCCOc1ccc(/N=N/c2ccc(C3OCC4(CO3)CC3C=CC4C3)cc2)cc1 (repeat unit),106.20
11,*c1ccc(Oc2ccc(-c3c4ccccc4c(-c4ccc(Oc5ccc(-c6c7c(c(*)c8ccccc68)C(=O)N(c6ccccc6)C7=O)cc5)c(C(F)(F)F)c4)c4ccccc34)cc2C(F)(F)F)cc1 (repeat unit),361.00
12,*CCC(C)C(C)CCNC(=O)c1cccc(C(=O)N*)c1 (repeat unit),125.00
13,*c1ccc(Oc2ccc(N3C(=O)c4ccc(C(=O)c5ccc6c(c5)C(=O)N(c5ncc(*)s5)C6=O)cc4C3=O)cc2)cc1 (repeat unit),320.20
14,*CCCCCCCCCCCOC(=O)c1cc(OCCCCCCCCOc2ccc(/N=N/c3ccc(OC)cc3)cc2)cc(C(=O)OCCCCCCCCCCCOc2ccc(-c3ccc(O*)cc3)cc2)c1 (repeat unit),60.00
15,*Oc1cc(CCCCCCCCC)cc(OC(=O)c2cccc(C(*)=O)c2)c1 (repeat unit),41.50
16,*CC(*)CNc1ccc([N+](=O)[O-])c(C(F)(F)F)c1 (repeat unit),153.00
17,*c1ccc2c(c1)C(=O)N(c1cccc(C(=O)Nc3ccc(Oc4cccc(Oc5ccc(NC(=O)c6cccc(N7C(=O)c8ccc(C(*)(C(F)(F)F)C(F)(F)F)cc8C7=O)c6)cc5)c4)cc3)c1)C2=O (repeat unit),264.00
18,*Oc1ccc(S(=O)(=O)c2ccc(Oc3ccc(C(=O)c4cc(C(=O)c5ccc(*)cc5)cc(C(C)(C)C)c4)cc3)cc2)cc1 (repeat unit),198.00
19,*C(=O)c1ccc2c(c1)C(=O)N(c1cccc(OCCOc3cccc(N4C(=O)c5ccc(*)cc5C4=O)c3)c1)C2=O (repeat unit),191.00
